Among the data in ChEMBL document CHEMBL2440033, “Synthesis of amino-hydroxy-benzocycloheptenones as potent, selective, non-peptidic dinuclear zinc metalloaminopeptidase inhibitors” (Bioorg Med Chem, 2013) are IC50 and Ki values, retold here.

The target of assay [1] is Bacterial leucyl aminopeptidase (Vibrio proteolyticus, UniProt Q01693). The experiment in a line: Inhibition of Aeromonas proteolytica leucyl aminopeptidase using L-leucine para-notroanilide as substrate assessed as release of para-nitroaniline by Dixon plot analysis.
Chain of Bacterial leucyl aminopeptidase (Q01693 whole entry): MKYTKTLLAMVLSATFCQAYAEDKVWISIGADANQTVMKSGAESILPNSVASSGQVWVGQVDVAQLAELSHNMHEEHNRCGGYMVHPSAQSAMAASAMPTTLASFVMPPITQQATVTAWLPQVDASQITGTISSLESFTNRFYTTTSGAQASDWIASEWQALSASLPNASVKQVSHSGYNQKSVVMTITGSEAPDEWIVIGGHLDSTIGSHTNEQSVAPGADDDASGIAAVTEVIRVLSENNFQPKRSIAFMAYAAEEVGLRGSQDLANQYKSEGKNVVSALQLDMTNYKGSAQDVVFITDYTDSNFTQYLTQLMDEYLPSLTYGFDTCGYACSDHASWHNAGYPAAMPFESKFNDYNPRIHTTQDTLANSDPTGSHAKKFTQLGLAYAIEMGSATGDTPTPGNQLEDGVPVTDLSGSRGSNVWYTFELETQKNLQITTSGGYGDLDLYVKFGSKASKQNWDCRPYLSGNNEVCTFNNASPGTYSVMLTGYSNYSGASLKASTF
For another assay, the target named is T1, Aminopeptidase N (Sus scrofa, UniProt P15145).
T1 sequence (P15145 whole entry): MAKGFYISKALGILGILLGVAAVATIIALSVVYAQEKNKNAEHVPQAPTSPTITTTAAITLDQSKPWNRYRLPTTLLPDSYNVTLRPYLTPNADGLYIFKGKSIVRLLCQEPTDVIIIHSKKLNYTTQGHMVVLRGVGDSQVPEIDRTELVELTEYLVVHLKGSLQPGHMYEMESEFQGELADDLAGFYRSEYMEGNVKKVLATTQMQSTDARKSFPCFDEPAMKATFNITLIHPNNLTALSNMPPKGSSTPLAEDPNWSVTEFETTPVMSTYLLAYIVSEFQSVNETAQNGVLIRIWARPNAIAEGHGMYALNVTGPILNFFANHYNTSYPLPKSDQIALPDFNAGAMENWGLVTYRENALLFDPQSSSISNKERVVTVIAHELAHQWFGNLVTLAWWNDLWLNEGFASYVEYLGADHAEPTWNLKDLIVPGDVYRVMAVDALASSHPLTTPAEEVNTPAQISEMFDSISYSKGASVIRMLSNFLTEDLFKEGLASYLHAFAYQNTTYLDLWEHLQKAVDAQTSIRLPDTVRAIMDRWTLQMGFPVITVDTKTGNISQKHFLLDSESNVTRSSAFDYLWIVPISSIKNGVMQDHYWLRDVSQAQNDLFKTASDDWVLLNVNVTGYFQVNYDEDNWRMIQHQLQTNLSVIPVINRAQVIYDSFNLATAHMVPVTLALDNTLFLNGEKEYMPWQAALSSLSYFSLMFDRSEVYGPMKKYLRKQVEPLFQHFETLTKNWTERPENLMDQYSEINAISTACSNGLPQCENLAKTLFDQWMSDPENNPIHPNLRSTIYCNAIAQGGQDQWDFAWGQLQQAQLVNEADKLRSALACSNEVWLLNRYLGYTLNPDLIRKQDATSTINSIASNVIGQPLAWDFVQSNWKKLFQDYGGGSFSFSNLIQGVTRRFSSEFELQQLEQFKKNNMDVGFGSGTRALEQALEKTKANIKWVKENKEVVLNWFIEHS
The assay is described as follows: Inhibition of porcine kidney APN using L-leucine para-notroanilide as substrate assessed as release of para-nitroaniline by Dixon plot analysis.

For the compound `NC1CCc2ccccc2CC1=O` (stereo unspecified), the IC50 (usually the concentration that inhibits the measured activity by half) in assay [1] was found to be 900 µM.

As for `N[C@@H]1[C@H](O)Cc2ccccc2C[C@@H]1O`, the half-inhibitory concentration (IC50) at Aminopeptidase N is > 1000 µM. The Ki – broadly, the dissociation constant of the complex between target and ligand, obtained from inhibition or displacement – in assay [1] amounted to 78 µM.

Consider `N[C@@H]1C(=O)Cc2ccccc2C[C@@H]1O` (racemic), for which the IC50 (at Aminopeptidase N; in assay [1]) was > 1000 µM in each case.

Consider `N[C@H]1Cc2ccccc2C[C@@H](O)C1=O` (racemic), for which the IC50 at Aminopeptidase N is > 100 µM. The inhibition constant (Ki) in assay [1] stood at 4 µM.

For the compound `N[C@H]1Cc2ccccc2C[C@H](O)C1=O` (racemic), the Ki at Aminopeptidase N stood at 42 µM; in assay [1], 24 µM.

As for `N[C@H]1Cc2ccccc2CC(=O)[C@H]1O` (racemic), the IC50 at Aminopeptidase N was > 1000 µM. For the same compound, the inhibition constant (Ki) in assay [1] was 0.01 µM.
